Data set [1] is described as follows: Pharmacokinetic evaluation in mice. The class given is in vivo, male ICR mice. The following applies: for AUC(0-t) / clearance / half-life / Vd / Cmax / Tmax: male, ICR, mouse, plasma; for Vd: read-out: Vss; for F: po 10 mg/kg vs iv 2 mg/kg. As for the experimental part:
Example 344. Pharmacokinetic Evaluation in Mice
The compounds were administered by intravenous injection at a dose of 2 mg/kg and oral gavage at a dose of 10 mg/kg (0.5% CMC-Na suspension). 15 male ICR mice were selected for each group, and each mouse was subjected to blood collection at 3 discrete time points, with 3 mice at each time point. The time points of sampling were as follows: before administration, and 5 min, 15 min, 30 min, 1 h, 3 h, 5 h, 8 h, 12 h and 24 h after administration. 80 μL of blood was collected from the orbits or hearts of the mice at each time point after administration. All whole blood samples were collected in tubes containing EDTA K2 and centrifuged (1500-1600 rmp/min) at 4° C. for 10 min to isolate plasma, which was then stored in a refrigerator at −90° C. to −60° C. for sample analysis. The compound concentration in the plasma was determined by liquid chromatography-tandem mass spectrometry, and the corresponding pharmacokinetic parameters were obtained according to a plasma concentration-time curve.

The next data set has as its target T1, Wee-1 kinase (Homo sapiens, UniProt P30291).
T1 construct: purchased Invitrogen
Nature of the data set: Inhibitory activity against Wee-1 kinase (Lanthra Screen Wee-1 kinase kit, Tracer 178). The class given is binding. The following applies: Wee-1 kinase 5 nM, Tracer 178 50 nM, 1 h room temperature. In a few lines: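 LanthaScreen binding format: Wee-1 kinase (5 nM final) with Eu-anti-GST antibody (2 nM final) and kinase Tracer 178 (50 nM final), compounds serially diluted in DMSO. 1 h at room temperature before reading. IC50 relative to DMSO control.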

In a further data set the test system is HT29 cells. As to the kind of experiment: Antiproliferative activity against HT29 cells (Cell Titer-Lumi, ATP content). The class given is cell-based. The following applies: Homo sapiens, HT-29, 72 after compound addition, read-out: HT-29 cells Anti-proliferative activity (IC50 for the inhibition against HT-29 cell growth). The gist of the method:
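3000 cells per well, allowed to adhere overnight, then exposed to a gradient dilution of compound for 72 (units as printed). Cellular ATP read by luminescence (Cell Titer-Lumi) as a growth measure; IC50 for growth inhibition calculated.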

Where [2] appears, read: po, 10 mg/kg, 0.5% CMC-Na suspension.

T1 sequence (P30291 whole entry): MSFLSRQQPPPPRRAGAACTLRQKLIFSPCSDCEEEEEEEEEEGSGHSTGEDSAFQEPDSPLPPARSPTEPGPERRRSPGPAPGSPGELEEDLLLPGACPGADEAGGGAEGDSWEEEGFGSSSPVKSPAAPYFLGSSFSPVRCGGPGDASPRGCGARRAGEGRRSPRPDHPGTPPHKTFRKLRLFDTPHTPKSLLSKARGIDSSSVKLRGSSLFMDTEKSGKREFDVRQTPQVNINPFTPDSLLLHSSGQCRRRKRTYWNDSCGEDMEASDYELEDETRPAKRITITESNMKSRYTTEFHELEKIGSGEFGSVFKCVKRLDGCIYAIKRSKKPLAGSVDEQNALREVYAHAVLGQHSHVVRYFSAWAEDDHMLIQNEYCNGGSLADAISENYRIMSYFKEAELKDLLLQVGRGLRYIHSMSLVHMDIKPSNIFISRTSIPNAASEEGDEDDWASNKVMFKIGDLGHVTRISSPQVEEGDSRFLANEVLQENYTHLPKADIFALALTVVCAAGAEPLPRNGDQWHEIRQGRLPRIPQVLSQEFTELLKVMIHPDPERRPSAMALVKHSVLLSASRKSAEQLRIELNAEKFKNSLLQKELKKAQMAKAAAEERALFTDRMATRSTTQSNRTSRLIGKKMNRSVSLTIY

In the case of `C=CCn1c(=O)c2cnc(Nc3ccc(N4CCN(C)CC4)cc3)nc2n1-c1ccc(=O)n(C(C)C)n1` [Compound 3], the “oral absorption characteristics (in words)” value in data set [1] (compared with control drug AZD-1775) is “good oral absorption characteristics”. Besides, in data set [1] (iv, 2 mg/kg), the AUC(0-t) amounted to 736 ng·h/mL, the clearance came out at 45.3 mL/min/kg, the half-life was 43.1 min and the Vd turned out to be 1.8 L/kg. Also, in data set [1] (setting [2]), the exposure AUC(0-t) amounted to 1210 ng·h/mL, the concentration peaked (Cmax) at 533 ng/mL, the time to peak (Tmax) amounted to 15 min and the half-life was 115 min. Also, the F in data set [1] amounted to 32.9%. Moreover, on Wee-1 kinase, the IC50 was at most 30 nM. For the same compound, the IC50 in the data set on HT29 cells is at most 1000 nM.
As to `C=CCn1c(=O)c2cnc(Nc3ccc(N4CCN(C)CC4)cc3)nc2n1-c1cccc(C(C)(C)O)n1` [AZD-1775, reference compound], in data set [1] (iv, 2 mg/kg), the AUC(0-t) turned out to be 152 ng·h/mL, the clearance turned out to be 220 mL/min/kg, the half-life was 18 min and the Vd amounted to 3.51 L/kg. In data set [1] (setting [2]), the AUC(0-t) was 215 ng·h/mL, the Cmax came to 247 ng/mL, the Tmax came to 30 min and the half-life is 87 min. The same compound registered a F in data set [1] of 28.3%. Further, the IC50 in the data set with HT29 cells was at most 1000 nM.
Turning to `C=CCn1c(=O)c2cnc(Nc3ccc(N4CCN(C5CCN(C)CC5)CC4)c(OC)c3)nc2n1-c1ccc(=O)n(C(C)C)n1` [Compound 141], the IC50 on Wee-1 kinase was at most 30 nM; in the data set with HT29 cells, at most 1000 nM.
On to `C=CCn1c(=O)c2cnc(Nc3ccc(N4CCC5(CCNCC5)CC4)c(OC)c3)nc2n1-c1ccc(=O)n(C(C)C)n1` [Compound 183], for which the IC50 at Wee-1 kinase was at most 30 nM; in the data set with HT29 cells, at most 1000 nM.
Taken in the same sequence, the figures for `C=CCn1c(=O)c2cnc(Nc3ccc(N4CCC(N5CCC(F)(F)CC5)CC4)c(C)c3)nc2n1-c1ccc(=O)n(C(C)C)n1` [Compound 152] were at most 30 nM and at most 1000 nM.
Taken in the same sequence, the figures for `CCn1c(=O)c2cnc(Nc3ccc4c(c3)CN(C)CC43CC3)nc2n1-c1ccc(=O)n(C(C)C)c1` [Compound 302] were at most 30 nM and at most 1000 nM.
Taken in the same sequence, the figures for `C=CCn1c(=O)c2cnc(Nc3ccc(N4CC5(CCCCN5C)C4)c(C)c3)nc2n1-c1ccc(=O)n(C(C)C)n1` [Compound 189] were 30 to 100 nM and at most 1000 nM.
Turning to `C=CCn1c(=O)c2cnc(Nc3cc(C)cc(C4CCN(C)CC4)c3)nc2n1-c1ccc(=O)n(C(C)C)n1` [Compound 207], the IC50 is at most 30 nM on Wee-1 kinase and at most 1000 nM with HT29 cells.
For `C=CCn1c(=O)c2cnc(Nc3ccc(C4CCNCC4)c(C)c3)nc2n1-c1ccc(=O)n(C(C)C)n1` [Compound 192], in that order: at most 30 nM and at most 1000 nM.
`C=CCn1c(=O)c2cnc(Nc3ccc(N4CC(N5CCC5)C4)cc3)nc2n1-c1ccc(=O)n(C(C)C)n1` [Compound 80]: the IC50 is at most 30 nM against Wee-1 kinase and 1000 to 3000 nM in the data set with HT29 cells.
For `C=CCn1c(=O)c2cnc(Nc3cc(F)cc(C4CCN(C)CC4)c3)nc2n1-c1ccc(=O)n(C(C)C)n1` [Compound 209], in that order: at most 30 nM and at most 1000 nM.
For `C=CCn1c(=O)c2cnc(Nc3ccc(N4CC5(CN(C)C5)C4)c(C)c3)nc2n1-c1ccc(=O)n(C(C)C)n1` [Compound 158], in that order: at most 30 nM and at most 1000 nM.
On to `Cc1cc(Nc2ncc3c(=O)n(C4CC4)n(-c4ccc(=O)n(C(C)C)c4)c3n2)ccc1C1CCN(C)CC1` [Compound 309], for which the IC50 against Wee-1 kinase was at most 30 nM; with HT29 cells, at most 1000 nM.
Taken in the same sequence, the figures for `C=CCn1c(=O)c2cnc(Nc3ccc(N4CC5CCC(C4)N5C)cc3)nc2n1-c1ccc(=O)n(C(C)C)n1` [Compound 136] were 30 to 100 nM and 1000 to 3000 nM.
Taken in the same sequence, the figures for `C=CCn1c(=O)c2cnc(Nc3ccc(N4CCN(C)CC4)cc3)nc2n1-c1ccc(=O)n(CC2CCC2)n1` [Compound 17] were 30 to 100 nM and 1000 to 3000 nM.
Taken in the same sequence, the figures for `C=CCn1c(=O)c2cnc(Nc3ccc(N4CCN(C)CC4)cc3)nc2n1-c1cc(C#N)c(=O)n(C(C)C)c1` [Compound 28] were 30 to 100 nM and above 3000 nM.

One may read the AUC(0-t) as exposure summed from dosing to a finite time, without extrapolation to infinity. Broadly, the clearance is a measure of how efficiently the substance is removed, as volume per time. In general, half-life refers to the time needed for the level to fall by half in the phase considered. Low values mean rapid decline, high ones slow decline. As usually defined, the Cmax is the peak of the concentration-time curve. One may read the Tmax as the time from dosing to the highest level. Broadly, the IC50 is the concentration that inhibits the measured activity by half.
